Assay [1] addresses T1, human mAChR M4 (Homo sapiens, UniProt P08173).
T1 construct: expressed in transfected cells; host or cells: CHO-K1 (ATCC), stably co-expressing chimeric G protein Gqi5
T1 sequence (P08173 1-479): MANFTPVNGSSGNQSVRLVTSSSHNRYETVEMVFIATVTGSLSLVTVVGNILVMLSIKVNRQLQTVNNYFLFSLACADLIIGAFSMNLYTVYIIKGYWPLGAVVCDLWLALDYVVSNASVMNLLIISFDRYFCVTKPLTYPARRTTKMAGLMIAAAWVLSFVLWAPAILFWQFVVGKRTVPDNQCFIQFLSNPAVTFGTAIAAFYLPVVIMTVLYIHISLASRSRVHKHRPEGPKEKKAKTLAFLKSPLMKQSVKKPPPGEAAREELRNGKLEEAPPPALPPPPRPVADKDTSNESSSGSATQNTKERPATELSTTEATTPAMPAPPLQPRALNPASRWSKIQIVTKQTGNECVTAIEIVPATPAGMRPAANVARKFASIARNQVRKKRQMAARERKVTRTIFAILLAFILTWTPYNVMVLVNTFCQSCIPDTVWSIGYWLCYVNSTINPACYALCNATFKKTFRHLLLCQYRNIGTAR
The experiment in a line: mAChR M4 cell-based functional assay (calcium mobilization, EC80 acetylcholine), human M4. The following applies: Table 10; for IC50: M4/Gqi5/CHO-K1 cells, decrease of EC80 acetylcholine response. In a few lines: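 CHO-K1 cells stably expressing human M4 with chimeric Gqi5; intracellular calcium rise read on FDSS as fluorescence static ratio at 1 Hz. Compounds in 10-point 1:3 dilution series; IC50 taken as concentration-dependent decrease of the EC80 acetylcholine response, four-parameter logistic fit.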
Background: A change in cytosolic calcium serves as a functional read-out for many receptors and channels.

Assay [2] concerns the target T2, rat mAChR M4 (Rattus norvegicus, UniProt P08485).
T2 construct: expressed in transfected cells; host or cells: CHO-K1 (ATCC), stably co-expressing chimeric G protein Gqi5
T2 sequence (P08485 1-478): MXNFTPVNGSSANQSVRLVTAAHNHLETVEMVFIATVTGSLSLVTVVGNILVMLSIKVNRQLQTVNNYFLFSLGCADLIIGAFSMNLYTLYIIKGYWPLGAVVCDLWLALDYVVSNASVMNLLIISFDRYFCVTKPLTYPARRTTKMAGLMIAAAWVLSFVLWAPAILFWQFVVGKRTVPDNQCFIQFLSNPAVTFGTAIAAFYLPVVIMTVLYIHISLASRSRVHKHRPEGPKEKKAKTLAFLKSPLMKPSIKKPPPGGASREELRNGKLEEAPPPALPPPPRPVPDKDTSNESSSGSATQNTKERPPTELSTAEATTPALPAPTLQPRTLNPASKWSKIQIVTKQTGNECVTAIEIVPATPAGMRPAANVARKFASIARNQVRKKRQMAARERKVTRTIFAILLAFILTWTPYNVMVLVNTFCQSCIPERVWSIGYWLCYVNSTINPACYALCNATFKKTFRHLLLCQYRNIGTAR
In words: mAChR M4 cell-based functional assay (calcium mobilization, EC80 acetylcholine), rat M4. The following applies: Table 10; for IC50: M4/Gqi5/CHO-K1 cells, decrease of EC80 acetylcholine response. As to the method: Human or rat M4 cDNA, along with the chimeric G protein Gqi5, were transfected into Chinese hamster ovary (CHO-K1) cells purchased from the American Type Culture Collection using Lipofectamine2000. M4/Gqi5/CHO cells were grown in Ham's F-12 medium containing 10% heat-inactivated fetal bovine serum (FBS), 20 mM HEPES, 500 μg/mL G418 sulfate, and 200 μg/mL Hygromycin B.
For high throughput measurement of agonist-evoked increases in intracellular calcium, CHO-K1 cells stably expressing muscarinic receptors were plated in growth medium lacking G418 and hygromycin at 15,000 cells/20 μL/well in Greiner 384-well black-walled, tissue culture (TC)-treated, clear-bottom plates (VWR). Cells were incubated overnight at 37° C. and 5% CO2. The next day, cells were washed using an ELX 405 (BioTek) with assay buffer; the final volume was then aspirated to 20 μL. Next, 20 μL of a 2.3 μM stock of Fluo-4/acetoxymethyl ester (Invitrogen, Carlsbad, CA), prepared as a 2.3 mM stock in DMSO and mixed in a 1:1 ratio with 10% (w/v) Pluronic F-127 and diluted in assay buffer, was added to the wells and the cell plates were incubated for 50 min at 37° C. and 5% CO2. Dye was removed by washing with the ELX 405 and the final volume was aspirated to 20 μL. Compound master plates were formatted in a 10 point concentration-response curve (CRC) format (1:3 dilutions) in 100% DMSO with a starting concentration of 10 or 1 mM using a BRAVO liquid handler (Agilent). Test compound CRCs were then transferred to daughter plates (240 nL) using the Echo acoustic plate reformatter (Labcyte, Sunnyvale, CA) and then diluted into assay buffer (40 μL) to a 2× stock using a Thermo Fisher Combi (Thermo Fisher Scientific, Waltham, MA).
Calcium flux was measured using the Functional Drug Screening System (FDSS) 6000 or 7000 (Hamamatsu Corporation, Tokyo, Japan) as an increase in the fluorescent static ratio. Compounds were applied to cells (20 μL, 2×) using the automated system of the FDSS at 2 seconds into the protocol and the data were collected at 1 Hz. At 143 s, 10 μL of an EC20 concentration of the muscarinic receptor agonist acetylcholine was added (5×), followed by the addition of 12 μL of an EC80 concentration of acetylcholine at the 268 s time point (5×). Agonist activity was analyzed as a concentration-dependent increase in calcium mobilization upon compound addition. Positive allosteric modulator activity was analyzed as a concentration-dependent increase in the EC20 acetylcholine response. Antagonist activity was analyzed as a concentration-dependent decrease in the EC80 acetylcholine response; for the purposes of the tables herein, an IC50 (inhibitory concentration 50) was calculated as a concentration-dependent decrease of the response elicited by an EC80 concentration of acetylcholine. Concentration-response curves were generated using a four-parameter logistical equation in XLFit curve fitting software (IDBS, Bridgewater, NJ) for Excel (Microsoft, Redmond, WA) or Prism (GraphPad Software, Inc., San Diego, CA) or the Dotmatics software platform (Dotmatics, Bishop's Stortford, UK).

For assay [3], the system named is haloperidol-induced catalepsy in mice. In words: catalepsy induced by the DA receptor antagonist haloperidol. In kind it is in vivo.
In assay [4] the test system is M4 knockout mice. To be noted: but not the other four mAChR subtypes; cited from earlier work.

The IC50 is the point on the concentration scale where inhibition reaches its midpoint.

`c1cc(C2CC2)ncc1-c1ccc(N[C@H]2C[C@@H]3CN(CC4CCOCC4)C[C@@H]3C2)nn1` [Compound 232, (3aR,5s,6aS)-N-[6-(6-cyclopropyl-3-pyridyl)pyridazin-3-yl]-2-(tetrahydropyran-4-ylmethyl)-3,3a,4,5,6,6a-hexahydro-1H-cyclopenta[c]pyrrol-5-amine]: in assay [1], the “Human M4 Emin” value is given as 4% and the IC50 was 5.32 nM. Further, in assay [2], the “Rat M4 Emin” value worked out at 8% and the IC50 was 490 nM.

Consider `CN1[C@@H]2C[C@@H](OC(=O)[C@H](CO)c3ccccc3)C[C@H]1[C@@H]1O[C@@H]12` [scopolamine], for which, in assay [3] (M4KO mice), the “reduction of haloperidol-induced catalepsy” value was “ineffective in reducing catalepsy”. Also, in assay [3] (WT mice), the “reversal of haloperidol-induced catalepsy” value is “completely reversed”. Moreover, the locomotor-activating effects result in assay [4] is “dramatically reduced”.

On to `CC(C)(C)CCN1C[C@H]2C[C@H](Oc3ccc(-c4ccc5c(c4)OCO5)nn3)C[C@H]2C1` [Compound 138, (3aR,5s,6aS)-5-[6-(1,3-benzodioxol-5-yl)pyridazin-3-yl]oxy-2-(3,3-dimethylbutyl)-3,3a,4,5,6,6a-hexahydro-1H-cyclopenta[c]pyrrole], for which, in assay [1], the “Human M4 Emin” value was found to be 3% and the IC50 came out at 59.1 nM. Further, in assay [2], the “Rat M4 Emin” value is reported as 3% and the IC50 came to 382 nM.

With `CC(=O)Nc1ccc(-c2ccc(O[C@H]3C[C@@H]4CN(CC5CCOCC5)C[C@@H]4C3)nn2)cc1` [Compound 132, N-[4-[6-[[(3aR,5s,6aS)-2-(tetrahydropyran-4-ylmethyl)-3,3a,4,5,6,6a-hexahydro-1H-cyclopenta[c]pyrrol-5-yl]oxy]pyridazin-3-yl]phenyl]acetamide], in assay [1], the “Human M4 Emin” value is recorded as 6% and the IC50 was found to be 648 nM. For the same compound, in assay [2], the “Rat M4 Emin” value is given as 6% and the IC50 amounted to 995 nM.

Regarding `c1csc(-c2ccc(N[C@H]3C[C@@H]4CN(CC5CCOCC5)C[C@@H]4C3)nn2)c1` [Compound 226, (3aR,5s,6aS)-2-(tetrahydropyran-4-ylmethyl)-N-[6-(2-thienyl)pyridazin-3-yl]-3,3a,4,5,6,6a-hexahydro-1H-cyclopenta[c]pyrrol-5-amine], in assay [1], the “Human M4 Emin” value is listed as 6% and the IC50 is 22 nM. In addition, in assay [2], the “Rat M4 Emin” value was 14% and the IC50 came out at 605 nM.

On to `FC(F)Oc1ccc(-c2ccc(N[C@H]3C[C@@H]4CN(CC5CCOCC5)C[C@@H]4C3)nn2)cc1` [Compound 223, (3aR,5s,6aS)-N-[6-[4-(difluoromethoxy)phenyl]pyridazin-3-yl]-2-(tetrahydropyran-4-ylmethyl)-3,3a,4,5,6,6a-hexahydro-1H-cyclopenta[c]pyrrol-5-amine], for which, in assay [1], the “Human M4 Emin” value came out at 3% and the IC50 came out at 6.39 nM. In addition, in assay [2], the “Rat M4 Emin” value is 6% and the half-maximal inhibitory concentration (IC50) worked out at 121 nM.

The record behind these values is patent publication US12577234B2, “Antagonists of the muscarinic acetylcholine receptor M4” (Vanderbilt University, priority 2017, dated 2026).
